Test results reported in publication PMC6112376, “Comprehensive Analyses and Prioritization of Tox21 10K Chemicals Affecting Mitochondrial Function by in-Depth Mechanistic Studies” (Environmental Health Perspectives, 2018).
Counter-ions that a name gives are not always drawn. Like-named read-outs stand apart in the source and are kept apart here.

Key:
HepG2 cells [1] = experiment: cells; details: Homo sapiens; for IC50: HepG2, read-out: MMP assays IC50 (µM) HepG2; for Emax: HepG2, read-out: MMP assays efficacy (%) HepG2
rat primary hepatocytes [2] = tested on: rat primary hepatocytes
HepG2 cells [3] = details: cited from earlier work
rat primary hepatocytes [4] = experiment: MMP assay in rat primary hepatocytes; details: for IC50: Rattus norvegicus, Hepatocyte, read-out: MMP assays IC50 (µM) Rat Hepatocytes
[5] = read-out: MMP assays IC50 (µM), qHTS-HepG2
[6] = read-out: MMP assays IC50 (µM) qHTS-HepG2

| Compound | IC50 (HepG2 cells [1]) | Emax (HepG2 cells [1]) | MMP assays efficacy (%) Rat Hepatocytes (rat primary hepatocytes [2]) | MMP assays efficacy (%) qHTS-HepG2 (HepG2 cells [3]) | IC50 (HepG2 cells [3]; [5]) | IC50 (rat primary hepatocytes [4]) | IC50 (HepG2 cells [3]; [6]) | MMP assays IC50 (µM) Rat Hepatocytes (rat primary hepatocytes [4]) |
| --- | --- | --- | --- | --- | --- | --- | --- | --- |
| O=c1c(O)c(-c2ccc(O)cc2)oc2cc(O)cc(O)c12 [Kaempferol] | 6.76 µM | 96% | -84±55% | -100±8% | 2.56 ± 3.04 µM | 24.1 ± 8.76 µM |  |  |
| CC1(C)[C@H](C(=O)O[C@H](C#N)c2cccc(Oc3ccccc3)c2)[C@@H]1C=C(Br)Br [Deltamethrin] | 50.1 µM | 93% | -65±42% | -75±5% |  | 39.8 ± 14.2 µM | 45.9 ± 17.9 µM |  |
| ClC1=C(Cl)C2(Cl)C(CBr)CC1(Cl)C2(Cl)Cl (stereo not drawn) [Bromociclen] | 15.5 µM | 47% | inactive | -87±13% |  |  | 33.2 ± 3.47 µM | inactive |
| COC(=O)Nc1nc2ccc(C(=O)c3cccs3)cc2[nH]1 [Nocodazole] | 2.18 µM | 87% | inactive | -62±6% | 3.53 ± 1.63 µM |  |  | inactive |
| CCC(C)(C)c1cc(O)c(C(C)(C)CC)cc1O | 3.55 µM | 101% | -87±19% | -121±19% |  | 34.5 ± 5.88 µM | 6.86 ± 3.17 µM |  |
| CCCOC(=O)c1ccc(O)cc1 [Propylparaben] | 35.5 µM | 91% | inactive | -99±4% | 38.6 ± 1.67 µM |  |  | inactive |
| C[C@H]1CCCC(=O)CCC/C=C/c2cc(O)cc(O)c2C(=O)O1 [Zearalenone] | 5.84 µM | 115% | -68±24% | -110±22% | 4.67 ± 1.77 µM | 22 ± 1.79 µM |  |  |
| Cl[Si](Cl)(c1ccccc1)c1ccccc1 [Dichlorodiphenylsilane] | 22.4 µM | 109% | inactive | -106±4% |  |  | 13 ± 9.66 µM | inactive |
| CC(=O)O[C@H]1C[C@H](O[C@H]2[C@@H](O)C[C@H](O[C@H]3[C@@H](O)C[C@H](O[C@H]4CC[C@@]5(C)[C@H](CC[C@@H]6[C@@H]5C[C@@H](O)[C@]5(C)[C@@H](C7=CC(=O)OC7)CC[C@]65O)C4)O[C@@H]3C)O[C@@H]2C)O[C@H](C)[C@H]1O[C@@H]1O[C@H](CO)[C@@H](O)[C@H](O)[C@H]1O [Lanatoside C] | 0.31 µM | 92% | inactive | -51±10% | 0.78 ± 0.14 µM |  |  | inactive |
| Clc1ccc(C(c2ccc(Cl)cc2)C(Cl)Cl)cc1 [p,p'-DDD] | 39.8 µM | 108% | -37±12% | -103±18% | 15.2 ± 8.82 µM | 42.2 ± 19.8 µM |  |  |
| Nc1ccc(-c2ccc(N)cc2)cc1 [Benzidine] | 15.8 µM | 79% | -69±64% | -59±14% |  | 2.51 ± 3.54 µM | 24.3 ± 4.5 µM |  |
| CC(=O)CC(c1ccccc1)c1c(O)c2ccccc2oc1=O (stereo not drawn) [Sodium warfarin] | 35.5 µM | 65% | -77±32% | -95±22% | 38.6 ± 12.8 µM | 35.5 µM |  |  |
| BrC1CCC(Br)C(Br)CCC(Br)C(Br)CCC1Br (stereo not drawn) [1,2,5,6,9,10-Hexabromocyclododecane] | 6.31 µM | 105% | -89±40% | -96±6% |  | 32 ± 16.5 µM | 6.93 ± 1.95 µM |  |
| CCCN(CC1CC1)c1c([N+](=O)[O-])cc(C(F)(F)F)cc1[N+](=O)[O-] [Profluralin] | 39.8 µM | 58% | -37±10% | -76±20% | 21.7 ± 8.04 µM | 25.1 ± 35.4 µM |  |  |
| CC(=O)CC(c1ccc([N+](=O)[O-])cc1)c1c(O)c2ccccc2oc1=O (stereo not drawn) [Acenocoumarol] | 9.32 µM | 89% | -64±56% | -96±12% |  | 4.59 ± 1.82 µM | 8.36 ± 1.07 µM |  |
| C[C@@H]1O[C@@H](O[C@H]2C[C@@H](O)[C@]3(CO)[C@H]4[C@H](O)C[C@]5(C)[C@@H](C6=CC(=O)OC6)CC[C@]5(O)[C@@H]4CC[C@]3(O)C2)[C@H](O)[C@H](O)[C@H]1O [Ouabain] | 0.22 µM | 94% | inactive | -88±7% | 0.18 µM |  |  | inactive |
| Cc1cccc(N)c1N [3-Methylbenzene-1,2-diamine] | 28.2 µM | 90% | -56±11% | -67±14% |  | 36.6 ± 11.8 µM | 21.7 ± 3.65 µM |  |
| Oc1cccc2ccccc12 [Compound 1-Naphthol] | 31.6 µM | 107% | inactive | -104±5% |  |  | 31 ± 5.96 µM | inactive |
| Oc1cc(Cl)cc(Cl)c1Cl [2,3,5-Trichlorophenol] | 6.31 µM | 114% | -77±25% | -99±7% |  | 27.7 ± 10.4 µM | 5.8 ± 1.05 µM |  |
| COC(=O)N(C(=O)N1CO[C@@]2(C(=O)OC)Cc3cc(Cl)ccc3C2=N1)c1ccc(OC(F)(F)F)cc1 [Indoxacarb] | 15.3 µM | 57% | -88±26% | -83±20% | 12.7 ± 3.65 µM | 34.4 ± 5.58 µM |  |  |
| CC(C)C[C@H]1C(=O)N2CCC[C@H]2[C@]2(O)O[C@](NC(=O)[C@@H]3C=C4c5cccc6[nH]c(Br)c(c56)C[C@H]4N(C)C3)(C(C)C)C(=O)N12 [Bromocriptine] | 21.8 µM | 121% | -68±7% | -112±8% |  | 13.2 ± 10.8 µM | 11.4 ± 1.58 µM |  |
| C[C@@]1(c2ccc(Oc3ccccc3)cc2)OC(=O)N(Nc2ccccc2)C1=O (racemic) [Famoxadone] | 4.47 µM | 107% | -158±101% | -104±6% |  | 8.38 ± 6.71 µM | 4.19 ± 1.07 µM |  |
| CC(C)=CCC1=C(O)C(=O)c2ccccc2C1=O [Lapachol] | 31.6 µM | 113% | inactive | -117±24% | 26.1 ± 1.7 µM |  |  | inactive |
| CC(C)OC(=O)C(O)(c1ccc(Cl)cc1)c1ccc(Cl)cc1 [Chloropropylate] | 44.7 µM | 102% | -66±32% | -105±14% |  | 43.8 ± 10.9 µM | 26.3 ± 3.64 µM |  |
| Cc1c(O)cccc1C(=O)N[C@@H](CSc1ccccc1)[C@H](O)CN1C[C@H]2CCCC[C@H]2C[C@H]1C(=O)NC(C)(C)C [Nelfinavir mesylate] | 30.8 µM | 97% | -61±48% | -120±19% | 11.9 ± 6.92 µM | 8.68 ± 12.2 µM |  |  |
| S=C=Nc1ccccc1 [Phenyl isothiocyanate] | 35.5 µM | 134% | inactive | -103±16% | 43 ± 14.8 µM |  |  | inactive |
